Source: patent US3985875A, “ω-(N-acylamino)alkylphosphoryl ethanolamines, pharmaceutical compositions containing them, and their uses” (Dainippon Pharmaceutical Co., Ltd., priority 1974, dated 1976)
Blank lines part the entries; values can stand above or below the compound they belong to.

Experiments:
Renin = target: T1, Renin (Homo sapiens, UniProt P00797); test: Renin-inhibitory activity, Method I (inhibition of Angiotensin I formation, RIA); format: biochemical; conditions: Table 2; 37°C, 4 hours, 1.25 mg/ml; read-out: Rate of inhibiting the formation of Angiotensin I determined by Method I
T1 sequence (P00797 67-406): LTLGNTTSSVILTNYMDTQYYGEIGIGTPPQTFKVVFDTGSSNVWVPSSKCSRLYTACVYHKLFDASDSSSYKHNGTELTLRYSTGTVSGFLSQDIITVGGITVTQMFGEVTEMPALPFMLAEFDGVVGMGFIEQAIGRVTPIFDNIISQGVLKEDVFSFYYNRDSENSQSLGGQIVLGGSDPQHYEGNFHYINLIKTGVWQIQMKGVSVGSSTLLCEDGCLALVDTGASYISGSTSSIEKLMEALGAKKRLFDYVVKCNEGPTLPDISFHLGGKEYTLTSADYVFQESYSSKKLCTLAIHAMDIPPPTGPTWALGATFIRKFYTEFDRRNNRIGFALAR
Experimental: Renin (see E. Haas et al. Circulation Research, Vol. 19, p. 739, 1966 and Vol. 31, p. 65, 1972) was incubated in Angiotensinogen at 37° C. for 2 to 6 hours. Similarly, renin was incubated under the same conditions in the presence of 0.313 to 2.5 mg/ml. of each of the test compounds listed above. The amount of Angiotensin I was measured by radioimmunoassay (RIA) (E. Haber et al., J. Clin. Endocrinol., Vol. 29, p. 1349, 1969), and made the renin activity.
(§1) The results are shown in Table 1 (the rate of inhibiting the formation of Angiotensin I, as determined by Method I, when the plasma was incubated at 37° C. for 2, 4 and 6 hours respectively), and Table 2 (the rate of inhibiting the formation of Angiotensin I when the plasma was incubated at 37° C. for 4 hours, with the compound concentration of 1.25 mg/ml.)

High renin plasma = target: T2, High renin plasma (Canis lupus familiaris, UniProt Q6DYE7); test: Renin-inhibitory activity, Method II (high renin plasma of dog, inhibition of Angiotensin I formation); format: biochemical; conditions: Table 2; 37°C, 4 hours, 1.25 mg/ml; read-out: Rate of inhibiting the formation of Angiotensin I determined by Method II
T2 construct: High renin plasma prepared by constriction of the renal artery of a dog anesthetized with Nembutal; from tissue; host or cells: plasma of a dog with constricted renal artery
T2 sequence (Q6DYE7 66-403): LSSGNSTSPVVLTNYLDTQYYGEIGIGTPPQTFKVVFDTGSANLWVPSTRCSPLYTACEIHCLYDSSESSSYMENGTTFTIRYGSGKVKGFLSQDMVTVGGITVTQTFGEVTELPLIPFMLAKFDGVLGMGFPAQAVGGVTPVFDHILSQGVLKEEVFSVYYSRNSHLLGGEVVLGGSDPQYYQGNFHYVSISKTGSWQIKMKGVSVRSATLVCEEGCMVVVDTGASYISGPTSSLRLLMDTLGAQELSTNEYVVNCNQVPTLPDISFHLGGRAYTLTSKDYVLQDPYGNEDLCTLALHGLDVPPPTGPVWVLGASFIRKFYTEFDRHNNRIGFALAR
Experimental: High renin plasma prepared by constriction of the renal artery of a dog anesthetized with Nembutal (the plasma which when incubated at 37°40 C. for 6 hours, yields 30 to […]. of Angiotensin I) was incubated at 37° C. for 2 to 6 hours in the same way as in Method I, and also under the same conditions in the presence of 1.25 mg/ml. of each of the test compounds.
as §1

plasma cholesterol level = test: Cholesterol-lowering activity in rats (modified Greenberg method); format: in vivo, rat; conditions: 100 mg/Kg oral once a day, 5 consecutive days
Experimental: The effect of each of the test compounds on the plasma cholesterol level was examined in rats according to a slightly modified form of the C. M. Greenberg et al. method described in Am. J. Physiol., Vol. 202 (1961), p. 732. Rats were treated once a day with a 100 mg/Kg oral dose for 5 consecutive days instead of 7 days.

renal hypertensive rats [1] = test: Antihypertensive activity in rats, p.o. (Table 4); format: in vivo, rat; conditions: 100 mg/kg/day p.o.
Experimental: (§2) An aqueous solution or suspension in peanut oil of each test compound as administered intramuscularly (i.m.) or orally (p.o.) at a dose of 30 to 100 mg/kg (body weight)/day once every morning over the period of 6 to 7 days.
(§3) The blood pressure of each rat was measured daily before and 5 hours after each administration. Furthermore, the blood pressure was measured every morning after drug withdrawal over a period of 3 to 6 days.
(§4) Test compounds (1)-(4) decreased the blood pressure of renal hypertensive rats with a dose of 30 mg/kg/day i.m.. […] The antihypertensive rats with a dose of 100 mg/kg/day p.o..

renal hypertensive rats [2] = test: Antihypertensive activity in renal hypertensive rats, i.m. (Table 3); format: in vivo, rat; conditions: 30 mg/kg/day i.m.
Experimental: as §2, §3, §4

[3] = 1st day, 0 h (immediately before administration)
[4] = 1st day, 5 hours after administration
[5] = 2nd day, 0 h (immediately before administration)
[6] = 2nd day, 5 hours after administration
[7] = 3rd day, 0 h (immediately before administration)
[8] = 3rd day, 5 hours after administration
[9] = 4th day, 0 h (immediately before administration)
[10] = 5th day, 0 h (immediately before administration)
[11] = 5th day, 5 hours after administration
[12] = 6th day, 0 h (immediately before administration)
[13] = 4th day, 5 hours after administration
[14] = 6th day, 5 hours after administration

- inhibition at 1250 µg/mL (Renin): < 10%
- inhibition at 1250 µg/mL (High renin plasma): 25%
Compound: CCCCCC=CCC=CCC=CCC=CCCCC(=O)OCC(COP(=O)(O)OCCN)OC(=O)CCCCCCCCCCCCCCCCC (racemic) [(a), rac-2-Octadecanoyl-3-(eicosa-5,8,11,14-tetraenoyl)glycero-1-phosphoryl ethanolamine, reference compound]
- Cholesterol-lowering activity (plasma cholesterol level): 0%
- antihypertensive effect, oral administration (in words) (renal hypertensive rats [1]): did not show such an effect
- Changes of blood pressure (renal hypertensive rats [1]; [3]): 0 mmHg
- Changes of blood pressure (renal hypertensive rats [1]; [4]): +2 mmHg
- Changes of blood pressure (renal hypertensive rats [1]; [5]): +1 mmHg
- Changes of blood pressure (renal hypertensive rats [1]; [6]): +5 mmHg
- Changes of blood pressure (renal hypertensive rats [1]; [7]): +2 mmHg
- Changes of blood pressure (renal hypertensive rats [1]; [8]): -2 mmHg
- Changes of blood pressure (renal hypertensive rats [1]; [9]): +1 mmHg
- Changes of blood pressure (renal hypertensive rats [1]; [10]): +2 mmHg
- Changes of blood pressure (renal hypertensive rats [1]; [11]): +2 mmHg
- Changes of blood pressure (renal hypertensive rats [1]; [12]): +1 mmHg
- Changes of blood pressure (renal hypertensive rats [1]; 7th day, 0 h (immediately before administration)): +1 mmHg
- Changes of blood pressure (renal hypertensive rats [1]; 7th day, 5 hours after administration): +2 mmHg
- Changes of blood pressure after drug withdrawal (renal hypertensive rats [2]; 1st day after withdrawal): -14 mmHg
- Changes of blood pressure (renal hypertensive rats [2]; [3]): 0 mmHg
- Changes of blood pressure (renal hypertensive rats [2]; [4]): -26 mmHg
- Changes of blood pressure after drug withdrawal (renal hypertensive rats [2]; 2nd day after withdrawal): -3 mmHg
- Changes of blood pressure (renal hypertensive rats [2]; [6]): -35 mmHg
- Changes of blood pressure after drug withdrawal (renal hypertensive rats [2]; 3rd day after withdrawal): -1 mmHg
- Changes of blood pressure (renal hypertensive rats [2]; [7]): -5 mmHg
- Changes of blood pressure (renal hypertensive rats [2]; [8]): -29 mmHg
- Changes of blood pressure (renal hypertensive rats [2]; [9]): -5 mmHg
- Changes of blood pressure (renal hypertensive rats [2]; [13]): -34 mmHg
- Changes of blood pressure (renal hypertensive rats [2]; [10]): -13 mmHg
- Changes of blood pressure (renal hypertensive rats [2]; [11]): -33 mmHg
- Changes of blood pressure (renal hypertensive rats [2]; [12]): -13 mmHg
- Changes of blood pressure (renal hypertensive rats [2]; [14]): -43 mmHg

- inhibition at 1250 µg/mL (Renin): < 10%
- inhibition at 1250 µg/mL (High renin plasma): 25%
Compound: CCC=CCC=CCC=CCCCCCCCC(=O)OCC(COP(=O)(O)OCCN)OC(=O)CCCCCCCCCCCCCCCCC (racemic) [(b), rac-2-Octadecanoyl-3-(octadeca-9,12,15-trienoyl)glycero-1-phosphoryl ethanolamine, reference compound]
- Cholesterol-lowering activity (plasma cholesterol level): 0%
- Changes of blood pressure after drug withdrawal (renal hypertensive rats [2]; 1st day after withdrawal): -11 mmHg
- Changes of blood pressure (renal hypertensive rats [2]; [3]): 0 mmHg
- Changes of blood pressure (renal hypertensive rats [2]; [4]): -32 mmHg
- Changes of blood pressure after drug withdrawal (renal hypertensive rats [2]; 2nd day after withdrawal): -2 mmHg
- Changes of blood pressure (renal hypertensive rats [2]; [5]): -4 mmHg
- Changes of blood pressure (renal hypertensive rats [2]; [6]): -25 mmHg
- Changes of blood pressure after drug withdrawal (renal hypertensive rats [2]; 3rd day after withdrawal): -1 mmHg
- Changes of blood pressure (renal hypertensive rats [2]; [7]): -8 mmHg
- Changes of blood pressure (renal hypertensive rats [2]; [8]): -34 mmHg
- Changes of blood pressure (renal hypertensive rats [2]; [9]): -7 mmHg
- Changes of blood pressure (renal hypertensive rats [2]; [13]): -39 mmHg
- Changes of blood pressure (renal hypertensive rats [2]; [10]): -8 mmHg
- Changes of blood pressure (renal hypertensive rats [2]; [11]): -44 mmHg
- Changes of blood pressure (renal hypertensive rats [2]; [12]): -10 mmHg
- Changes of blood pressure (renal hypertensive rats [2]; [14]): -47 mmHg
